Patent US10882813B2, “Method for the synthesis of ferric oraganic compounds” (Biophore India Pharmaceuticals Pvt. Ltd., priority 2014, dated 2021)
Several values for one entry are separate records, joined by “and”; a condition that tells them apart may be missing. Identical values can stand only once.

What was measured:
[1] = BET active (specific) surface area analysis, nitrogen adsorbate; format: physicochemical; settings: for Specific surface area: final product of the synthesis, amorphous powder dried under vacuum at 25-30° C.; for Surface area of the sample: after one blending with water and acetone mixture and drying under vacuum at 50-55° C.
Experimental: The analysis of BET is according to the method described as: out gassing a portion of the test sample, about 100 mg at 90° C. for 1 hour at ambient pressure using nitrogen as the adsorbate gas.

[2] = Intrinsic dissolution rate; format: physicochemical; settings: final product of the synthesis, amorphous powder

O=C([O-])CC(O)(CC(=O)[O-])C(=O)[O-].[Fe+3] [Ferric Citrate, Iron (III) 2-hydroxypropane-1,2,3-tricarboxylate, reference compound]
surface area ([1]; starting Ferric Citrate before treatment with water and acetone mixture): 30.0 Sq.m/g and 28.6 Sq.m/g

Ferric Citrate [Example III]
Specific surface area [1]: 12.0 sq.m/g

Ferric Citrate [Example II]
Specific surface area [1]: 10.6 sq.m/g

Ferric Citrate [Example IV]
Specific surface area [1]: 11.0 sq.m/g
Intrinsic dissolution rate [2]: 0.231 mg/sq.cm/min

Ferric Citrate [Example I]
Specific surface area [1]: 12.36 sq.m/g

Ferric Citrate [Example VII]
Surface area of the sample [1]: 20.0 sq.m/g
surface area ([1]; after repeating the same water and acetone process): 12.5 sq.m/g

Ferric Citrate [Example VI]
Surface area of the sample [1]: 10.3 sq.m/g

Ferric Citrate [Example V]
Specific surface area [1]: 7.8 sq.m/g
Intrinsic dissolution rate [2]: 0.31 mg/sq.cm/min
